Assay results from PMC8620715, “Biological Activity of Triazolopyrimidine Copper(II) Complexes Modulated by an Auxiliary N-N-Chelating Heterocycle Ligands” (Molecules, 2021).

Tests used:
plasmid pRSII325 = experiment: Nuclease activity assay (gel electrophoresis); format: biochemical; conditions: 37 °C; for DNA cleavage in the presence of H2O2: 0.1 and 0.5 mM complex + 1 mM H2O2, 1 h; for DNA cleavage in the presence of ascorbate: 0.1 and 0.5 mM complex + 1 mM ascorbate; for DNA cleavage in the presence of ascorbate / DNA cleavage, complex alone: 1 h; for DNA cleavage, complex alone: 0.1 and 0.5 mM
Protocol: To investigate the DNA cleavage activity of the two Cu(II) complexes, plasmidial DNA was incubated with (1) and (2), both in the absence or in the presence of activating agents, such as H2O2 or ascorbate. Exposure of DNA to the Cu(II) complexes in the presence of H2O2 exploits the CuII/III redox couple, while in the presence of ascorbate, the CuI/II redox couple is exploited. The nuclease activity of copper(II) complexes (1) and (2) was tested on plasmid pRSII325, which is a 6835 bp (base pair) circular plasmid. Gel electrophoresis of purified pRSII325 identified two main bands belonging to the supercoiled (SC) plasmid, which migrates faster, and the nicked-circular (NC) plasmid, which migrates slower (Figure 12, lane 1).
The nuclease activity of the compounds was determined using plasmid […] DNA, which was a gift from Steven Haase (Addgene plasmid #35467, 6835 base pairs). The plasmid was amplified in Escherichia coli by transforming One Shot® TOP10 chemically competent E. coli (Invitrogen, Thermo Fisher Scientific). The plasmid was isolated from positive colonies using a PureLink™ HiPure Plasmid Miniprep Kit (Invitrogen, Thermo Fisher Scientific). Plasmid (200 ng/sample) was exposed to complexes (1) and (2) in the presence of 1 mM hydrogen peroxide (to exploit the Cu(II/III) redox couple) or 1 mM ascorbic acid (to exploit the Cu(I/II) redox couple). The DNA cleavage experiments were done in a 9/1 (v/v) ratio of 50 mM Tris-HCl, pH 8, and DMSO. The samples were incubated for 1 h at 37 °C before a bromophenol blue/xylene cyanol-based loading dye (Roth, Germany) was added. The samples were loaded onto a 1% (w/v) agarose gel containing 1 μg/mL EtBr in 1 × TBE (Tris–boric acid–EDTA) buffer. Electrophoresis was performed at 50 V for 60 min in 1 × TBE buffer. The images of the fluorescent ethidium bromide-stained gels were captured using a gel documentation system (Doc-Print II, VilberLourmat, France). The cleavage experiments were done three times, with similar results. One representative gel is shown.

B16 cells = experiment: Lactate dehydrogenase (LDH) release assay, B16 cells; format: cell-based, mouse
Protocol: Membrane integrity after peptide treatment was assessed based on LDH release using a CytoTox 96 Non-Radioactive Cytotoxicity Assay (Promega), as previously described. […] Maximal LDH release was obtained by complete cell lysis induced by using 1% of Triton X-100. The absorption resulting from LDH activity was measured in a microplate reader Mithras 940 (Berthold) at 490 nm, and the % LDH was calculated as: [(corrected absorbance of the LDH released in treated cells)/(corrected absorbance of the total LDH released)] * 100%.

P. aeruginosa 27853 = experiment: Biofilm formation on polystyrene (crystal violet), MBEC; format: cell-based, Pseudomonas aeruginosa; conditions: P. aeruginosa 27853, biofilm
Protocol: (§1) The antibacterial assays were carried out using two Gram-negative (Escherichia coli ATCC 25922, Pseudomonas aeruginosa ATCC 27853) and two Gram-positive (Staphylococcus aureus ATCC 25923, MRSA (meticillin-Resistant S. aureus) 388 (ATCC, American Type Culture Collection) bacteria.
The method for assessment of biofilm formation on polystyrene microtiter plates was based on previously published protocols. The absorbance at 490 nm was measured with an Apollo LB 911ELISA (Berthold Technologies GmbH & Co. KG, Waltham, MA, USA) reader. The minimal biofilm-eradication concentration (MBEC) was defined as the lowest concentration of antibiotics required to eradicate the biofilm. All experiments were performed in triplicate.

S. aureus 25923 = experiment: MIC by broth microdilution; format: cell-based, Staphylococcus aureus; conditions: S. aureus 25923, planktonic
Protocol: as §1
(§2) The antimicrobial activity of the two complexes (1) and (2) was assessed using their minimum inhibitory concentration (MIC) by the broth microdilution method, as previously described by the Clinical and Laboratory Standard Institute (CLSI; M07-A9 document). A broth microdilution assay was performed in sterile 96-well plates using Muller-Hinton broth (Scharlau; MHB). The compounds solubilized in […] (1,000 μg/mL) were serially diluted in 90 μL MHB, in concentrations ranging between 500 and 0.97 μg/mL. Overnight cultures were used to prepare suspension in phosphate-buffered saline (pH 7.0) to match a 0.5 McFarland density. The bacterial suspensions were further diluted to 1:100 by adding 0.1 mL of bacterial suspension to 9.9 mL of MHB. A volume of 10 μL of this dilution was added to each well of columns 1–10, containing different concentrations of the tested compounds. […] Additionally, 10 μL of the diluted bacterial suspension was added in column 11 (the growth control). A volume of 100 μL MHB was added to the microtiter plates’ sterility control wells (column 12). After inoculation, the plates were incubated at 35 ± 2 °C for 18 h. Growth was measured as light absorbance (620 nm) in comparison to an uninoculated well (negative control). It was detected using a microtiter plate reader (Apollo LB 911ELISA (Berthold Technologies GmbH & Co. KG, Waltham, MA, USA)). The MIC of each compound was defined as the lowest concentration required to inhibit bacterial growth.

MRSA 388 = experiment: MIC by broth microdilution; format: cell-based, Staphylococcus aureus; conditions: MRSA 388, planktonic
Protocol: as §1, §2

SMILES	DNA cleavage in the presence of H2O2 (plasmid pRSII325)	DNA cleavage in the presence of ascorbate (plasmid pRSII325)	DNA cleavage, complex alone (plasmid pRSII325)	LDH release (B16 cells; B16, 24 h)	LDH release (B16 cells; B16, 48 h)	MBEC (P. aeruginosa 27853)	MIC (S. aureus 25923)	MIC (MRSA 388)	membrane integrity (LDH release) (B16 cells; B16, 24 h and 48 h)
Cc1cc(C)n2ncnc2n1.Cc1cc(C)n2ncnc2n1.Cc1cc(C)n2ncnc2n1.O.[Cu+2].[O-][Cl+3]([O-])([O-])[O-].[O-][Cl+3]([O-])([O-])[O-].c1cnc2c(c1)ccc1cccnc12 [Complex (2), [Cu(phen)(dmtp)2(OH2)](ClO4)2·dmtp]	H2O2 strongly enhancing the nuclease activity	a higher concentration of (2) was needed for full nuclease activity	caused plasmid relaxation to the NC form	60%	100%	0.69 mM	40 µM	20 µM	
Cc1cc(C)n2ncnc2n1.Cc1cc(C)n2ncnc2n1.Cc1cc(C)n2ncnc2n1.O.[Cu+2].[O-][Cl+3]([O-])([O-])[O-].[O-][Cl+3]([O-])([O-])[O-].c1ccc(-c2ccccn2)nc1 [Complex (1), [Cu(bpy)(dmtp)2(OH2)](ClO4)2·dmtp]	led to DNA degradation	led to DNA degradation	caused plasmid relaxation to the NC form			0.71 mM	180 µM	350 µM	did not affect the membrane integrity
